Results from publication PMC10967458, “A FtsZ Inhibitor That Can Utilize Siderophore-Ferric Iron Uptake Transporter Systems for Activity against Gram-Negative Bacterial Pathogens” (Antibiotics, 2024).

Target: K. pneumoniae FtsZ (KpFtsZ) (Klebsiella pneumoniae, UniProt A0A0H3GRR0)
Experiment: fluorescence anisotropy titration of intrinsically fluorescent RUP4 ([…]) with purified KpFtsZ, […] °C, […] fit
Type: binding

Chain of K. pneumoniae FtsZ (KpFtsZ) (A0A0H3GRR0 entry or part of it): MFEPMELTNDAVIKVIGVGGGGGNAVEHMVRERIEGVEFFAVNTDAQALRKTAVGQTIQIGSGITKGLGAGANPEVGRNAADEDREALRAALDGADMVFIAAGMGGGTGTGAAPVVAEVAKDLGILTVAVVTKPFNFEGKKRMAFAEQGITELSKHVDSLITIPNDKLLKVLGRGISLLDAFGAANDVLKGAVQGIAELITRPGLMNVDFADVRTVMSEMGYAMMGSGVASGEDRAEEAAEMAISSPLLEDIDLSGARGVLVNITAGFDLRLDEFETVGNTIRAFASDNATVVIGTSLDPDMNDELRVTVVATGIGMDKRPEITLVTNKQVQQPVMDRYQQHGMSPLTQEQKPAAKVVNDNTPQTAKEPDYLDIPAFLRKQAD

## NC(=O)c1c(F)ccc(OC(CCNC(=O)c2ccc(O)c(O)c2Cl)c2nc(-c3ccc(C(F)(F)F)cc3)c(Br)o2)c1F (stereo not shown) [RUP4]
  Kd: 49 ± 5 µM
